Measured values from article PMC3970910 (Biochemistry, 2013).

Experiments:
GPR18 = conditions: cited from earlier work
mouse osteoclast = conditions: mouse osteoclasts in vitro; cited from earlier work
human osteoclast = conditions: human osteoclasts in vitro; cited from earlier work
untransfected U2OS cells = assay: ERK1/2 phosphorylation in untransfected U2OS cells; format: cell-based

Molecule	activity at GPR18 (GPR18)	effect on osteoclast polarization and resorption produced by GPR55 agonists O-1602 and LPI (mouse osteoclast)	effect on osteoclast polarization and resorption produced by GPR55 agonists O-1602 and LPI (human osteoclast)	Induction of ERK1/2 phosphorylation in untransfected U2OS cells (untransfected U2OS cells)
C=C(C)[C@@H]1CCC(C)=C[C@H]1c1c(O)cc(CCCCC)cc1O [CBD, cannabidiol]	low efficacy agonist	attenuating the effects	attenuating the effects	–
L-α-lysophosphatidylinositol [LPI]	–	–	–	neither LPI nor any of the antagonist compounds induced ERK1/2 phosphorylation
